Literature values in patent US20130071904A1, “ACETATE-RESISTANT YEAST STRAIN FOR THE PRODUCTION OF A FERMENTATION PRODUCT” (priority 2010, published 2013).

Test system: Saccharomyces cells
Settings: Pons et al. 1984

In the case of `CC(=O)O` [Acetate], the “effect on growth of Saccharomyces cells” value is listed as “inhibits the growth”.
